Each structure is given as a SMILES string.

In PMC2915651 (2010) one finds binding and K b data, which are given here for two compounds.

For assay [1], the system named is [d(TGGGGT)]4 (DNA, G4) TGGGGT. In words: 1H NMR titration. Particulars: 70 mM KCl; 10 mM phosphate, EDTA, pH 7.0, 25 °C; 2 mM quadruplex; fast exchange.
Assay [2] deals with d(CGCGAATTCGCG)2 (DNA, duplex) CGCGAATTCGCG
In words: 1H NMR titration. Particulars: 70 mM KCl; 10 mM phosphate, EDTA, pH 7.0, 25 °C; 1 mM DNA; shifts at most 0.03 ppm at 2:1.

Assay [3] deals with [d(TGGGGT)]4 (DNA, G4) TGGGGT. The assay can be described thus: ITC. The following applies: 70 mM KCl; 20 mM phosphate, 0.1 mM EDTA, pH 7.0, 25 °C; identical sites, n = 2.0.
In assay [4] the test system is d(CGCGAATTCGCG)2 (DNA, duplex) CGCGAATTCGCG
In words: ITC. The following applies: 70 mM KCl; 20 mM phosphate, 0.1 mM EDTA, pH 7.0, 25 °C; no resolvable isotherm; ligand 600–700 μM into 30 μM DNA.

As to `Cn1cc(NC(=O)c2cc(NC(=O)c3cc(N=CN)cn3C)cn2C)cc1C(=O)NCCC(=N)N`, the binding result in assay [1] is on record as “yes”; in assay [2], “weak”; in assay [4], “weak”. Moreover, the K b in assay [3] was 1.9 ± 0.2 × 10^6 M^-1.
As for `Cn1cc(NC(=O)c2cc(NC(=O)CN=C(N)N)cn2C)cc1C(=O)NCCC(=N)N`, in assay [3], the K b is 1.2 ± 0.1 × 10^6 M^-1.
